According to US7169792B2, “Method of treating bacterial infections using gemifloxacin or a salt thereof and a β-lactam antibiotic” (priority 2002, dated 2007):
Like-named read-outs stand apart in the source and are kept apart here.

What was measured:
[1] = system: clinically isolated P. aeruginosa; test: checkerboard titration, gemifloxacin or ciprofloxacin with ceftazidime, 27 clinical isolates (Example 4); format: cell-based, Pseudomonas aeruginosa; conditions: for FICA: FIC of gemifloxacin; for Cgemifloxacin MIC: in combination with ceftazidime; for MIC: Pseudomonas aeruginosa, drug alone, read-out: gemifloxacin MIC
Protocol: The test organisms were clinical isolates collected in Korea. Organisms were frozen at −70 C prior to testing. Testing was done by the checkerboard method in 96-well plates using Mueller-Hinton broth. […] Ceftazidime was also dispensed alone in the first row in the first column. Test strains of P. aeruginosa were grown for 18 h in Mueller-Hinton broth, and then these overnight cultures were diluted with the same fresh medium to the density of approximately 10^7 CFU/mL. The bacterial concentrations were determined by measuring optical density or turbidity of the suspension and were verified by standard colony counts on antibiotic-free agar plates. A diluted bacterial solution was applied to 96-well plates containing serially diluted antimicrobial agents to yield 10^4 CFU per spot. Plates were incubated aerobically overnight.
(§1) Minimal inhibitory concentrations (MICs) for each separate drug were determined. For wells along the growth-no growth interface, synergy was determined by calculating the Fractional Inhibitory Concentration (FIC) index. The Fractional Inhibitory Concentration (FIC) indices were calculated using the following formula: FICindex=FICA+FICB=[A]/MICA+[B]/MICB • Wherein: • FICA(or B), is the FIC of drug A (or B) MICA (or B) is the MIC of the organism to drug A (or B) • A (or B) is concentration of drug A (or B) that is the lowest inhibitory concentration
(§2) The FIC indices were interpreted using the following criteria: • ≦0.5=Synergy • >0.5–1.0=Additive • >1.0–4.0=Indifference • >4.0=Antagonism

S. saprophyticus 662 = test: checkerboard titration, gemifloxacin and amoxicillin (MIC, FIC); format: cell-based, Staphylococcus saprophyticus
Protocol: The concentration range tested varied for each drug/organism combination to encompass the MIC endpoints of the individual components. […] The last well (H) in column 12 was used as a positive growth control well, containing only medium and test isolate.
The bacteria were diluted to a 0.5 McFarland standard and then further diluted 1/50. Each well was inoculated with 25 μl of the isolate to give a final inoculum density of approximately 5×10^5 cfu/ml. […] After inoculation, the plates were covered with a 96 well microtitre plate lid and incubated at 35° C. in ambient air for 20–24 hours. A 10 μl aliquot of the inoculum was plated on trypticase soy agar containing 5% sheep blood to determine the purity of the final test inoculum.
Following incubation, a microtitre mirror reader (Cooke Instruments Ltd., England) was used to assist in determining the microdilution MIC endpoints. The MIC was determined as the lowest concentration of compound that inhibited visible growth of the organism.
2) S. saprophyticus 662 was obtained from the SmithKline Beecham Anti-Infectives Research Culture Collection and stored at −80° C. in 10% glycerol. Before testing, the isolate was passaged onto agar plates (trypticase soy agar containing 5% sheeps blood) from the frozen stock for two consecutive days. Cation adjusted Mueller Hinton broth (BBL, Cockeysville, Md.) was used for the isolate.
The combined effect of gemifloxacin and amoxicillin was investigated in S. saprophyticus 662 by using the checkerboard titration method described in Example 1.

[2] = system: clinically isolated P. aeruginosa strains; test: checkerboard method, gemifloxacin or ciprofloxacin with ceftazidime, 6 clinical isolates (Example 5); format: cell-based, Pseudomonas aeruginosa; conditions: for FICA: FIC of gemifloxacin; for Cgemifloxacin MIC: in combination with ceftazidime; for MIC: Pseudomonas aeruginosa, drug alone, read-out: gemifloxacin MIC
Protocol: as §1, §2
The test organisms were clinical isolates collected in Korea. Organisms were frozen at −70 C. prior to testing. […] Gemifloxacin or ciprofloxacin solution was dispensed alone in the first row and combined with ceftazidime in the remaining rows. Ceftazidime as also dispensed alone in the first row in the first column. Test strains of P. aeruginosa were grown for 18 h in Mueller-Hinton broth, and then these overnight cultures were diluted with the same fresh medium to the density of approximately 10^7 CFU/mL. The bacterial concentrations were determined by measuring optical density or turbidity of the suspension and were verified by standard colony counts on antibiotic-free agar plates. A diluted bacterial solution was applied to 96-well plates containing serially diluted antimicrobial agents to yield 5×10^5 CFU/mL. Plates were incubated at 35 C for 18 hours.
MICs for each separate drug were determined, and for wells along the growth-no growth interface, synergy was determined by calculating FIC Indices as in Example 4. FIC Indices were calculated and interpreted as in Example 4.

MIC range ([1]; 27 clinically isolated P. aeruginosa): 0.25 to 32 mg/L
Cgemifloxacin MIC ([1]; P. aeruginosa 6003): 0.25 mg/L
Cgemifloxacin MIC ([1]; P. aeruginosa 6021): 0.25 mg/L
Cgemifloxacin MIC ([1]; P. aeruginosa 6030): 0.125 mg/L
Cgemifloxacin MIC ([1]; P. aeruginosa 6045): 1 mg/L
Cgemifloxacin MIC ([1]; P. aeruginosa 6047): 1 mg/L
Cgemifloxacin MIC ([1]; P. aeruginosa 6113): 0.125 mg/L
Cgemifloxacin MIC ([1]; P. aeruginosa 6123): 0.125 mg/L
Cgemifloxacin MIC ([1]; P. aeruginosa 6173): 0.125 mg/L
Cgemifloxacin MIC ([1]; P. aeruginosa P032): 0.0625 mg/L
Cgemifloxacin MIC ([1]; P. aeruginosa P036): 1 mg/L
Cgemifloxacin MIC ([1]; P. aeruginosa P039): 0.5 mg/L
MIC ([1]; P. aeruginosa 6003): 1 mg/L
MIC ([1]; P. aeruginosa 6021): 1 mg/L
MIC ([1]; P. aeruginosa 6030): 1 mg/L
MIC ([1]; P. aeruginosa 6045): 4 mg/L
MIC ([1]; P. aeruginosa 6047): 8 mg/L
MIC ([1]; P. aeruginosa 6113): 0.5 mg/L
MIC ([1]; P. aeruginosa 6123): 1 mg/L
MIC ([1]; P. aeruginosa 6173): 1 mg/L
MIC ([1]; P. aeruginosa P032): 0.5 mg/L
MIC ([1]; P. aeruginosa P036): 8 mg/L
MIC ([1]; P. aeruginosa P039): 2 mg/L
MIC (S. saprophyticus 662; Staphylococcus saprophyticus, 662, in presence of amoxicillin 0.125 μg/ml, read-out: gemifloxacin MIC): 0.004 mg/L
gemifloxacin MIC (S. saprophyticus 662; drug alone, no unit in this line (other lines μg/ml)): 0.016
Cgemifloxacin MIC ([2]; P. aeruginosa 6140): 0.5 mg/L
Cgemifloxacin MIC ([2]; P. aeruginosa 6168): 0.0625 mg/L
Cgemifloxacin MIC ([2]; P. aeruginosa P003): 0.125 mg/L
MIC ([2]; P. aeruginosa 6140): 8 mg/L
MIC ([2]; P. aeruginosa 6168): 0.5 mg/L
MIC ([2]; P. aeruginosa P003): 2 mg/L
Compound: CO/N=C1\CN(c2nc3c(cc2F)c(=O)c(C(=O)O)cn3C2CC2)CC1CN (racemic) [gemifloxacin, (R,S)-7-(3-aminomethyl-4-methoxyiminopyrrolidin-1-yl)-1-cyclopropyl-6-fluoro-4-oxo-1,4-dihydro-1,8-naphthyridine-3-carboxylic acid]
FICA ([1]; P. aeruginosa 6003): 0.25
FICA ([1]; P. aeruginosa 6021): 0.25
FICA ([1]; P. aeruginosa 6030): 0.13
FICA ([1]; P. aeruginosa 6045): 0.25
FICA ([1]; P. aeruginosa 6047): 0.13
FICA ([1]; P. aeruginosa 6113): 0.25
FICA ([1]; P. aeruginosa 6123): 0.13
FICA ([1]; P. aeruginosa 6173): 0.13
FICA ([1]; P. aeruginosa P032): 0.13
FICA ([1]; P. aeruginosa P036): 0.13
FICA ([1]; P. aeruginosa P039): 0.25
FICA ([2]; P. aeruginosa 6140): 0.06
FICA ([2]; P. aeruginosa 6168): 0.13
FICA ([2]; P. aeruginosa P003): 0.06
